Data set [1] has as its system NCI-H460-GFP cells. Briefly: Apoptosis assay (EGFP/FACS) in NCI-H460-GFP cells. The conditions noted are these: Homo sapiens, data not shown, read-out: EC50, induction of apoptosis. The class given is cell-based. Here is the method: The following human cell line was used: MDA-MB-231 (ATCC: HTB-26). In addition the following enhanced green fluorescent protein (EGFP)-transfected human cell lines were used: NCI-H460 (ATCC: HTB-177) (H460GFP) and Jurkat (ATCC: TIB-152) (JurkatGFP). NCI-H460 and Jurkat cell lines were cultured in RPMI-1640 tissue culture medium containing 10% (v/v) fetal calf serum, 2 mM glutamine, non-essential amino acids and 50 μg/ml penicillin/streptomycin (Complete medium) (Sigma, Buchs, Switzerland). […]
The assays were performed in commercially available sterile 96-well U-bottom or 24-well flat-bottom tissue culture plates (Falcon). […] For time course experiments with Jurkat cells, the 96-well plates were removed shortly at the indicated time from the incubator, shaken in order to suspend the cells and an aliquot of 200 μl cell suspension was then transferred to a 96-well U-bottom plate and measured immediately on a fluorescence-activated cell sorting (FACS)-Canto II with a high through-put sampler (HTS)-module. […]
The quantification of the relative amount of apoptotic cells within a cell population was determined according to the Reference of Strebel et al., Cytometry 2001, 43(2), Green Fluorescent Protein as Novel Tool to Measure Apoptosis and Necrosis). […] As a readout the relative abundance of the cells belonging to M2 (apoptotic population) were expressed.

Data set [2] can be described thus: Pharmacokinetic profile in mouse plasma (LC-MS/MS), single agents vs combination. The class given is in vivo. The conditions noted are these: non-tumor bearing mice; BAL101553 daily, eribulin every two days to steady state; 10 minutes to 24 hours; FIG. 6. Here is the method:
Female NCI Ath/nu non-tumor bearing mice were treated either with BAL101553, eribulin or with a combination of BAL101553 and eribulin where eribulin was administered 30 minutes before BAL101553. Control animals received vehicle control. The mice were dosed until steady state was reached (BAL101553 was dosed daily and eribulin was dosed once every two days, the doses used for the combination-treatment matched those used in the monotherapy). Blood was taken from every animal according to a determined schedule covering a time window of 10 minutes to 24 hours, processed for plasma and subsequently analyzed by LC-MS/MS for the determination of BAL27862 (parent drug of BAL101553) and eribulin concentrations (ng/ml plasma). Data points represent mean values of ng/ml plasma concentration+/−SEM (n=3 animals).
The in vivo combination of BAL101553 with eribulin in the TNBC xenograft model MDA-MB-231 led to a higher proportion of cures or tumor free animals than observed in the single agent treatment groups. […] The mice were either treated with BAL101553, eribulin or the combination thereof, and plasma concentrations of BAL27862 and eribulin at various time points were determined (FIG. 6).

In data set [3] the test system is Jurkat-GFP cells. Briefly: Apoptosis assay (EGFP/FACS) in Jurkat-GFP cells. Particulars: data not shown; for EC50: Homo sapiens, read-out: EC50, induction of apoptosis; for maximal apoptosis induction: maximum of dose-response curve. Format: cell-based, human. Here is the method:
The following human cell line was used: MDA-MB-231 (ATCC: HTB-26). In addition the following enhanced green fluorescent protein (EGFP)-transfected human cell lines were used: NCI-H460 (ATCC: HTB-177) (H460GFP) and Jurkat (ATCC: TIB-152) (JurkatGFP). NCI-H460 and Jurkat cell lines were cultured in RPMI-1640 tissue culture medium containing 10% (v/v) fetal calf serum, 2 mM glutamine, non-essential amino acids and 50 μg/ml penicillin/streptomycin (Complete medium) (Sigma, Buchs, Switzerland). The MDA-MB-231 cell line was cultured in Dulbecco's Modified Eagle Medium (DMEM) (high glucose) tissue culture medium containing 10% (v/v) fetal calf serum, 1 mM sodium pyruvate and 50 μg/ml penicillin/streptomycin (i.e. Complete Medium) (Sigma, Buchs, Switzerland).
General growth conditions were 37° C. and 7.5% CO2. For the microtubule destabilization assay cell lines were cultured in 5% CO2.
The assays were performed in commercially available sterile 96-well U-bottom or 24-well flat-bottom tissue culture plates (Falcon). A defined number of test cells expressing enhanced green fluorescent protein (EGFP) (H460 cells: 600 μl of 30′000 cells/ml in 24-well flat-bottom plates, Jurkat cells: 600 μl of 400′000 cells/ml in […]) were plated either 24 hours before treatment in case of the adherent H460 cell line, or one hour prior to the start of the treatment for Jurkat cells. Between seeding and addition of compounds, the cells were incubated at 37° C. under 7.5% CO2. Subsequently, BAL27862 and eribulin (Halaven®, Ch.-B. 60363CRN1, Eisai) which were dissolved in Complete Medium were both added from stock solutions at 5× the final concentration in 200 μl to the wells, resulting in a final well-volume of 1 ml. The test plates were then incubated for the indicated time. For time course experiments with Jurkat cells, the 96-well plates were removed shortly at the indicated time from the incubator, shaken in order to suspend the cells and an aliquot of 200 μl cell suspension was then transferred to a 96-well U-bottom plate and measured immediately on a fluorescence-activated cell sorting (FACS)-Canto II with a high through-put sampler (HTS)-module. […]
The quantification of the relative amount of apoptotic cells within a cell population was determined according to the Reference of Strebel et al., Cytometry 2001, 43(2), Green Fluorescent Protein as Novel Tool to Measure Apoptosis and Necrosis). By monitoring the EGFP fluorescence activity excited at […] and measured at […] on a FACS-Cantoll™, it is possible to distinguish between proliferating cells, apoptotic cells and necrotic cells within the same cell population. […] As a readout the relative abundance of the cells belonging to M2 (apoptotic population) were expressed.

Data set [4] has as its system A549. Briefly: Soft agar assay, IC50 of single agents in A549. The conditions noted are these: Homo sapiens. Format: cell-based. Here is the method: Example 5: Determination of Drug Interaction in Cell Lines by Soft Agar Assay
The combination of BAL101553 with eribulin was tested in various cell lines by soft agar assay. Table 1 and Table 2 present the results according to coefficient of drug interaction based on colony number (Table 1) and total area of colonies (Table 2). In both cases the coefficient of drug interaction is calculated according to the formula described in Zhao et al., J Intercult Ethnopharmacol. 2014, 3(2): 68-72): (combination/untreated)/[(compound1/untreated)×(compound2/untreated)]

On to `N#CCCNc1nonc1-c1nc2ccccc2n1CC(=O)c1ccc(N)cc1` [BAL27862, 3-(4-{1-[2-(4-Amino-phenyl)-2-oxo-ethyl]-1H-benzoimidazol-2-yl}-furazan-3-ylamino)-propionitrile], for which the EC50 (in general, the midpoint of the concentration-response curve) in data set [1] stood at 24 nM. In addition, the “plasma concentrations, single agent vs combination” value in data set [2] is reported as “did not change significantly”. In data set [3], the concentration for a half-maximal effect (EC50) came to 15 nM and the maximal apoptosis induction is on record as 70-80%. For the same compound, the IC50 (usually the concentration needed to halve the response being measured) in data set [4] came to 25 nM.

Take `C=C1C[C@@H]2CC[C@@]34C[C@H]5O[C@H]6[C@@H](O3)[C@H]3O[C@H](CC[C@@H]3O[C@H]6[C@H]5O4)CC(=O)C[C@@H]3[C@@H](OC)[C@@H](C[C@H](O)CN)O[C@H]3C[C@H]3O[C@@H](CC[C@@H]1O2)C[C@@H](C)C3=C.CS(=O)(=O)O` [Eribulin, (2R, 3R, 3aS, 7R, 8aS, 9S, 10aR, 11S, 12R, 13aR, 13bS, 15S, 18S, 21S, 24S, 26R, 28R, 29aS)-2-[(2S)-3-Amino-2-hydroxypropyl]-3-methoxy-26-methyl-20,27-dimethylidenehexacosahydro-11,15:18,21:24,28-triepoxy-7,9-ethano-12,15-methano-9H,15H-furo[3,2-i]furo[2′,3′:5,6]pyrano[4,3-b][1,4]dioxacyclopentacosin-5(4H)-one methanesulfonate (salt)]: the EC50 in data set [1] was 1 nM. For the same compound, in data set [2], the “plasma concentrations, single agent vs combination” value is “did not change significantly”. Further, in data set [3], the EC50 was determined as 0.8 nM and the maximal apoptosis induction result is “about 70%”. Also, the IC50 in data set [4] came out at 0.25 nM.

The values above are taken from patent US11419856B2, “Pharmaceutical combinations for use in the treatment of neoplastic diseases” (Basilea Pharmaceutica International AG, priority 2017, dated 2022).
